Laboratory results: US12037419B2 (The Feinstein Institutes for Medical Research, priority 2016, dated 2024)

Experiments:
[1] = tested on: RAGE, LAIR-1, SHP-1, NF-κB signaling pathway; assay: Immunoprecipitation, Western blot, phospho-immunoreceptor array and p65 nuclear translocation in monocytes; assay type: cell-based, human
Experimental: (§1) Immunofluorescence Microscopy: In situ proximal ligation assay was performed according to manufacturer's protocol (Duolink, Sigma). Following stimulation, human monocytes were washed three times with ice-cold PBS and were fixed with 4% (wt/vol) PFA for 1 hour at room temperature, seeded (2×10^5 cells) on slides using cytospin (Shandon), permeablized with chilled MeOH for 4 min and with PBS/0.1% (vol/vol) Triton X-100 and blocked for 1 h at room temperature. Cells were then incubated overnight with a primary antibody pair directed to rabbit anti-RAGE (ab3611, Abcam) and to mouse anti-LAIR-1 (BD Bioscience), respectively. The cells were incubated with corresponding PLA probes conjugated to oligonucleotides (mouse MINUS and rabbit PLUS), then followed by ligation and rolling circle amplification in close proximity. Images were acquired using AxioVision software and a confocal microscope (Olympus). Quantification was performed using Zen2 (Zeiss). […] Cells were washed three times with cold-PBS and fixed with 4% PFA and stained with PECy5-anti-human CD14 antibody (BD biosciences) or propidium iodide (PI). […] PI or DAPI was used for nuclear staining. […] After washing, cells were stained with Alexa Fluor 594 anti-rabbit IgG (Life Technologies), and mounted DAPI-containing medium. Images were acquired using an AxioImage Z1 (Zeiss) apotome enabled (Zeiss) Fluorescent-intensity analysis of the images was performed using Zen2 (Zeiss).
Immunoprecipitation and Western blot. Total protein extracts were prepared as described (22). Monocytes (2-5×10^6 cells/ml) were washed in ice-cold PBS and lysed in 1×RIPA buffer containing complete protease inhibitor mixture (Roche) and phosphatase inhibitor (Pierce) for 1 h on ice. For immunoprecipitation, anti-LAIR-1 antibody (BD Bioscience) or anti-RAGE antibody (Abcam) was incubated with the lysate overnight at 4° C. prior to being incubated with protein G-dynabeads (Life Technologies). Proteins were then separated by SDS-PAGE, transferred to nitrocellulose or PVDF membranes, and immunoblotted with appropriate antibodies. Bands were detected using the ECL reagent (Thermo Scientific) or using the Odyssey Infrared Imaging system (LI-COR) to detect secondary antibodies conjugated with Infrared 680 or 800.
Phospho-immunoreceptor array: Tyrosine phosphorylated LAIR-1 was determined by human phosphoimmunoreceptor array (Proteome Profiler Array; R&D systems) according to the manufacturer's protocol and as described (22). Phosphorylation levels of individual analytes were determined by average pixel density of duplicate spots; values were obtained after subtraction of background and were normalized to positive control spots.

[2] = target: T1, LAIR-1 and RAGE in lipid rafts (Homo sapiens, UniProt Q15109+Q6GTX8); assay: Lipid raft fractionation and Western blot; assay type: cell-based; conditions: in the presence of HMGB1 and C1q
T1 construct: endogenous in cells; host or cells: monocytes
Experimental: Lipid raft fractionation: Lipid rafts were prepared as described (50). Monocytes (5×10^6) were lysed in 1 ml THE buffer (25 mM Tris, 150 mM NaCl, 5 mM EDTA) containing 1% Triton and incubated for 30 min on ice. Lysates were homogenized with 10 strokes of a dounce homogenizer, mixed with 2 ml of 80% sucrose in TNE buffer, and transferred to a centrifuge tube. Samples were overlaid with 4 ml of 30% sucrose and 2 ml of 5% sucrose in TNE. After centrifugation for 16 h at 180,000 g in a Beckman Coulter SW41Ti rotor, 0.8 ml fractions were collected from the top of the gradient. Each fraction was subjected to slot blot analysis to identify GM1-enriched rafts fraction using FITC-conjugated cholera toxin-B subunit (Sigma). Lipid raft fractions were precipitated with TCA and washed with 70% EtOH, then subjected to slot blot analysis or Western blot.

sRAGE-C1q-HMGB1 complex = target: T2, sRAGE-C1q-HMGB1 complex; assay: RAGE-C1q-HMGB1 trimolecular complex formation (SPR and C1q-coated beads); assay type: binding, human; conditions: sRAGE immobilized, C1q 200 nM, HMGB1 500 nM, either order
T2 construct: soluble RAGE (sRAGE) was immobilized on the sensor chip; C1q purified from pooled normal human sera; purchased R&D Systems (hrRAGE); Complement Technology (C1q)
Experimental: The dissociation time was set for 1 minute.
Trimolecular complex assay: Biotinylated-C1q (20 μg/ml) was precoated to SpeedBeads™ (Streptavidin-conjugated microbeads, Thermo Scientific). Beads were saturated with HMGB1, then incubated with RAGE.

[3] = tested on: splenic monocytes of C57BL/6 wild type, RAGE deficient or LAIR-1 deficient mice; assay: HMGB1-induced gene transcription in murine splenic monocytes (wild type, RAGE deficient, LAIR-1 deficient); assay type: cell-based, mouse
Experimental: Monocyte isolation and stimulation: Human PBMCs were obtained following institutional guidelines of the Feinstein Institute for Medical Research (Feinstein) and isolated from blood of healthy donors by density centrifugation (New York Blood Bank). Monocytes were negatively enriched using a human monocyte enrichment kit (Stem Cell Technology). Purity of monocytes (≥90% CD11b+CD14+LAIR-1+) was determined by flow cytometry. […] Splenic murine monocytes from wild type mice, RAGE deficient or LAIR-1 conditional knockout mice were isolated using EasySep mouse monocyte enrichment kit (Stem Cell Technology). C57BL/6 mice, Lysozyme2-Cre transgenic mice were purchased from Jackson Laboratory. Myeloid specific LAIR-1 conditional knockout mice (Lysozyme2-Cre×LAIR fl/fl) were bred and maintained in our facility (Feinstein) under specific pathogen-free conditions. RAGE deficient mice (Department of Medicine, Karolinska Institute Stockholm, Sweden) were maintained at Feinstein. Eight-to ten weeks old male mice were used for experiments. All animal procedures were approved by the Feinstein Institutional Animal Care and Use Committee.
RT-PCR analysis and primers: Total RNA was extracted from cells (1-2×10^6 cells per sample) with an RNeasy kit (Qiagen, Venlo, Limburg, Netherlands) and cDNA was generated using an iScript cDNA synthesis kit (Bio-Rad laboratories). Real Time-PCR was performed on a Light Cycler 480 II (Roche) using Light Cycler 480 master mix with primers (Applied Biosystems) for IFNα1 (Hs00256882), IFNα7 (mm02525960), MX1 (Hs00182073, mm01217998), IL-6 (Hs00985639, mm99999064), TNFα (Hs00174128, mm00443258), IL-12a (Hs00168405), Mer (Hs01031973), PDL-1 (Hs01125301), IL-10 (Hs00961622), CD163 (Hs00174705), HPRT1 (Hs99999909, mm01545399) and Polr2a (Hs00172187). The genes of interest were normalized to the expression of house keeping genes and were compared to a control condition with no treatment. The relative induction was calculated by 2-ΔΔCt.

human monocytes [4] = assay: Monocyte to DC differentiation with GM-CSF and IL-4 (flow cytometry); assay type: cell-based; conditions: compared with C1q alone
human monocytes [5] = assay: Internalization of FITC-labeled HMGB1 or CpG by monocytes (immunofluorescence microscopy); assay type: cell-based
Experimental: as §1, with “Images were acquired using an AxioImage Z1 (Zeiss) apotome enabled (Zeiss) Fluorescent-intensity analysis of the images was performed using Zen2 (Zeiss).” left out

[6] = HMGB1 3 μg/ml, C1q 25 μg/ml, 6 h

T2 sequence (Q15109 23-342 limits assumed): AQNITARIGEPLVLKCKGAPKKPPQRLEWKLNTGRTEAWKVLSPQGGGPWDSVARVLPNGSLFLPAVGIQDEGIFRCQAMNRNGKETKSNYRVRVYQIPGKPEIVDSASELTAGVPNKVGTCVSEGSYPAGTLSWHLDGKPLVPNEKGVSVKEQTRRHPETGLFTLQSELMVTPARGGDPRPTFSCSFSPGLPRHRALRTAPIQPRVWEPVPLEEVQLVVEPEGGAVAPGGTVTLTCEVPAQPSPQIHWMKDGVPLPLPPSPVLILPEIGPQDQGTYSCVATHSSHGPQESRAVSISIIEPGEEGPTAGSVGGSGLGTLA
T2 sequence (P09429 whole entry, further chain): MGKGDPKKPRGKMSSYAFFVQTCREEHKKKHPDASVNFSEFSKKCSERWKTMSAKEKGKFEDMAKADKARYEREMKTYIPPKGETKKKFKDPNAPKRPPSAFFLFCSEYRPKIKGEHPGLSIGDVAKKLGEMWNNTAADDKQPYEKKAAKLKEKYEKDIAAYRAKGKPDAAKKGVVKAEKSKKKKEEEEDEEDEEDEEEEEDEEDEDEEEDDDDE
T2 sequence (P02745 23-245, further chain): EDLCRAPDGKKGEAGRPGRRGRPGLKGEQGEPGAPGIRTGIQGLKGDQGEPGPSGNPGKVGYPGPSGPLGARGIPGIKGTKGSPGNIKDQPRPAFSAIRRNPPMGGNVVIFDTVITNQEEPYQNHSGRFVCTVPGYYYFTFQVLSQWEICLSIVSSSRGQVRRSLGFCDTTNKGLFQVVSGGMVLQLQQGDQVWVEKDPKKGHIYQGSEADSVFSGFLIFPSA
T2 sequence (P02746 28-253, further chain): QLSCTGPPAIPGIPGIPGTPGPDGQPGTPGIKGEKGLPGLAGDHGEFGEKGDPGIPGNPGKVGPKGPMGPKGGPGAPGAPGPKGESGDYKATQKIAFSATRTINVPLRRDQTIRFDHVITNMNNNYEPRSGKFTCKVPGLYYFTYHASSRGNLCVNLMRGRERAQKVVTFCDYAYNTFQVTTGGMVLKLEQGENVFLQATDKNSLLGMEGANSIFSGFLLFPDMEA
T2 sequence (P02747 29-245, further chain): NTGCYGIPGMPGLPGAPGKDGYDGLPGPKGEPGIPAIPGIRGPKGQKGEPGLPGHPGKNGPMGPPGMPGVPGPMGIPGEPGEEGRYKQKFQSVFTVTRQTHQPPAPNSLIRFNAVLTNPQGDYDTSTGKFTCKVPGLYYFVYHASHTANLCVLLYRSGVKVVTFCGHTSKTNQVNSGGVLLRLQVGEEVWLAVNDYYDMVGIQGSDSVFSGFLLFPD
T1 sequence (Q6GTX8 22-287): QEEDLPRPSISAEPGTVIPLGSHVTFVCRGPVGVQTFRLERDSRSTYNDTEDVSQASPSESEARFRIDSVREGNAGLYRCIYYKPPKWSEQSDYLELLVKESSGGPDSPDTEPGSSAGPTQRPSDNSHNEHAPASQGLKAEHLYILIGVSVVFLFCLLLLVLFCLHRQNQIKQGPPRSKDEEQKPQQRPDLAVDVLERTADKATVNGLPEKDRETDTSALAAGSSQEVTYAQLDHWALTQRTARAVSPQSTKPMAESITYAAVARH
T1 sequence (Q15109 23-404): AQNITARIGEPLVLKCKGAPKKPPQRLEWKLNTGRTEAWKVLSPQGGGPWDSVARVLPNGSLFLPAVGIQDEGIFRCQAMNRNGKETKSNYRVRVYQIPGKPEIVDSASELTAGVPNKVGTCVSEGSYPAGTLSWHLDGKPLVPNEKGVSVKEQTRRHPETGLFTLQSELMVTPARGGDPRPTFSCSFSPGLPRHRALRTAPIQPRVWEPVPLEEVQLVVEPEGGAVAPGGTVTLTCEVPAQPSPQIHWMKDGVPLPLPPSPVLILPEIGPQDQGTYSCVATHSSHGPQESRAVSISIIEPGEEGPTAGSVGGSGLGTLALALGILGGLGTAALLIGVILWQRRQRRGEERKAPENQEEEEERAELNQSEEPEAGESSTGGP

For “C1q: C1q purified from pooled normal human sera, obtained from Complement Technology”, the “phosphorylation of LAIR-1” value [1] was “induces phosphorylation of LAIR-1”, the “HMGB1-induced activation and nuclear translocation of NF-κB” value ([1]; P-IKKα, p65, 1 h) was “inhibited the downstream activation and nuclear translocation of NF-κB” and the “recruitment of SHP-1 to LAIR-1” value ([1]; both HMGB1 and C1q present) was “more SHP-1 is recruited to LAIR-1”. The “HMGB1-induced phosphorylation of RAGE” value ([1]; in the presence of C1q) was “diminished”, the “localization of LAIR-1 and RAGE in lipid rafts” value [2] was “LAIR-1 migrated to lipid rafts where LAIR-1 colocalized with RAGE” and the “trimolecular complex formation with HMGB1 and sRAGE” value (sRAGE-C1q-HMGB1 complex) was “formed a trimolecular complex”. For the same substance, the “HMGB1-induced gene transcription in RAGE-deficient cells” value [3, 6] was “no change in HMGB1-induced gene transcription”, the “HMGB1-induced proinflammatory cytokine gene transcription in wild type cells” value [3, 6] was “reduction in HMGB1-induced proinflammatory cytokine gene transcription” and the “HMGB1-induced mRNA expression in LAIR-1 deficient monocytes” value ([3]; Lysozyme-Cre x floxed LAIR-1 mice) was “no inhibitory effect”. The “expression of CD14 and LAIR-1 after GM-CSF and IL-4, pre-exposure to both HMGB1 and C1q” value (human monocytes [4]) was “significantly higher”, the “internalization of FITC-labeled CpG oligonucleotides” value (human monocytes [5]; 15 min) was “significantly reduced cellular internalization” and the “cytosolic FITC-HMGB1 (internalization)” value (human monocytes [5]; FITC-HMGB1 3 μg/ml, C1q 25 μg ml-1, 15 min, 37° C.) was “significantly decreased”.
